Experiments:
[1] = molecular target: BRAF V600E (Homo sapiens (Human), UniProt P15056, V600E); experiment: Inhibitory activity against kinase BRAF V600E, Z'-LYTE method (Invitrogen); type: biochemical; details: for inhibition at 1 µM: 1 μM compound, read-out: Inhibition (% inhibition at 1 μM) against BRAF V600E
Procedure: Inhibitory activities Inhibitory activities of compounds against BRAF, and BRAF V600E were measured by Invitrogen using Z′-LYTE® Method as briefly described in the following. 4× Test compounds are dissolved in 1% DMSO. […] ATP solutions are diluted to a 4×ATP working concentration in Kinase Buffer (50 mM HEPES pH 7.5, 0.01% BRIJ-35, 10 mM MgCl2, 1 mM EGTA). Reaction started by 30-second shaking of mixture consisting of 2.5 μL 4× test compound, […] and 2.5 μL 4×ATP Solution on Bar-coded Corning, low volume NBS, black 384-well plate (Corning Cat. #3676). Then the mixture was incubated for 60-minute at room temperature for the kinase reaction, followed by addition of 5 μL of a 1:1024 dilution of development reagent A and 30-second plate shake. The mixture was then incubated for another 60-minute at room temperature for development reaction. Fluorescence was read by plate reader. IC50 was calculated by plotting the concentration of compound vs the percentage of inhibition in treated wells using GraphPad Prism 5.
Table 2 and 3 show % inhibition at 1 μM of several compounds of the invention against BRAF and BRAF V600E, respectively, using Z′-LYTE® method.
The scale utilized in Table 4 is as follows: +++ less than 100 nM; and ++ greater than 100 nM.

[2] = molecular target: KDR (VEGFR2) (Homo sapiens (Human), UniProt P35968); experiment: Inhibitory activity against kinase KDR, Z'-LYTE method (Invitrogen); type: biochemical; details: for inhibition at 1 µM: 1 μM compound, read-out: Inhibition (% inhibition at 1 μM) against KDR
Sequence of KDR (VEGFR2) (P35968 20-1356): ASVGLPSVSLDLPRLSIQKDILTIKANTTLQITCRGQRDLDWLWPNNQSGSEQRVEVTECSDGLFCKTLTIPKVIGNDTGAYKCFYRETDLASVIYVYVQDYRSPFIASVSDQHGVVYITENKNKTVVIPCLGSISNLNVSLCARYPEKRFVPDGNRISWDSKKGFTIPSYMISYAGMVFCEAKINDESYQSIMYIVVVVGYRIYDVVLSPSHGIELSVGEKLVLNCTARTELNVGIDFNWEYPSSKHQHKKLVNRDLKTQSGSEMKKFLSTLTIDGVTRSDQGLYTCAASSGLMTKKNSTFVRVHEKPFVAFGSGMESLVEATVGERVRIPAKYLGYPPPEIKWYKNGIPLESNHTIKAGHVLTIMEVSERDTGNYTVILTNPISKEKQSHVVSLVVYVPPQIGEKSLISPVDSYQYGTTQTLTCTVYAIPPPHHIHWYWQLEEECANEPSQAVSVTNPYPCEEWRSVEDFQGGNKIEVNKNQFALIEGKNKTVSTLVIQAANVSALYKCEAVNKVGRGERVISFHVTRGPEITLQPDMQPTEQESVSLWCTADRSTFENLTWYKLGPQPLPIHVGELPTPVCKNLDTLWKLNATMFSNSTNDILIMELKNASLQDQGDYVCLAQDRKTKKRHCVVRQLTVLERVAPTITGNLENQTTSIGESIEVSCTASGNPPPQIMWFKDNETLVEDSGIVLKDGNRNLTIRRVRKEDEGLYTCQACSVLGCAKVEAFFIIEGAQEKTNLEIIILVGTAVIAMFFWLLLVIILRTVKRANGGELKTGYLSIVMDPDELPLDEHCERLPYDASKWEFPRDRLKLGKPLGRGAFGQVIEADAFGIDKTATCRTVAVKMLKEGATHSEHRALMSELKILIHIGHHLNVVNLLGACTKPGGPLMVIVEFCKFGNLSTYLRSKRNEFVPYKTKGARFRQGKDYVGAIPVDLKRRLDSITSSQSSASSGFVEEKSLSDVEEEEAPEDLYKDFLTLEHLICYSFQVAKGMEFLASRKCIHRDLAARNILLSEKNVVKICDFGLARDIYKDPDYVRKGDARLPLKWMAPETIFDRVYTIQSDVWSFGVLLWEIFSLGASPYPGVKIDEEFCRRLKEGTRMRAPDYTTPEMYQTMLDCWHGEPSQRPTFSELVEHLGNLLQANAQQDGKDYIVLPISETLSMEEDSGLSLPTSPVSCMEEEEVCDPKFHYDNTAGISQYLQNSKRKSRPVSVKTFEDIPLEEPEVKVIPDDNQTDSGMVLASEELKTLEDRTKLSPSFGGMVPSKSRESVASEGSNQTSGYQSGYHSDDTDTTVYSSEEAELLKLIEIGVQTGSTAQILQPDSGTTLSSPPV
Procedure: Inhibitory activities of compounds against KDR (VEGFR2) were also measured by Invitrogen using Z′-LYTE® Method as described above with the following modification. The 2× KDR (VEGFR2)/Tyr 01 mixture is prepared in 50 mM HEPES pH 7.5, 0.01% BRIJ-35, 10 mM MgCl2, 1 mM EGTA. The final 10 μL Kinase Reaction consists of 0.5-11.7 ng KDR (VEGFR2) and 2 μM Tyr 01 in 50 mM HEPES pH 7.5, 0.01% BRIJ-35, 10 mM MgCl2, 1 mM EGTA. After the 1 hour Kinase Reaction incubation, 5 μL of a 1:256 dilution of Development Reagent B is added.
The scale utilized in Table 5 is as follows: +++ less than 100 nM; and ++ greater than 100 nM

[3] = tested on: A375 cells; experiment: Inhibition of cancer cell growth, MTT or MTS assay, A375; type: cell-based; details: Homo sapiens, A-375; 72 h incubation
Procedure: (§1) Inhibition of cell growth by compounds was measured using MTT or MTS assay. Tumor cell lines were purchased from ATCC (American Type Culture Collection, Manassas, Va.). All cell lines were maintained in RPMI 1640 (Hyclone) supplemented with 10% fetal bovine serum (FBS, Hyclone), glutamine (2 mM, Hyclone), and antibiotics (penicillin 100 U/mL and streptomycin 50 μg/mL) at 37° C. in a humidified atmosphere of 5% CO2 in air. Taxol (as a positive control, Sigma) and compounds were dissolved in DMSO (Sigma), and the final concentration of DMSO in the medium was 1%. Tumor cells were plated in 96-well plates at densities of about 2000 (A375) or 4000 (A549 and Colo205) cells/well of a 96-well plate and allowed to adhere/grow for 24 h. They were then treated with various concentrations of drug and incubated for 72 h. For MTT method, medium was then removed by inverting and tapping the plates. 100 μL of MTT (0.5 mg/ml) was added to each well followed by an incubated at 37° C. for 4 h. MTT was then removed and 200 μL of DMSO was added to each well, and the ODs at 570 nm were measured after a 5 second shaking cycle in a 96-well spectrophotometer. For MTS method, 20 μL MTS (CellTiter 96 Aqueous One Solution, Promega) was added to each well followed by an incubated at 37° C. for 2-4 h, solutions were then directly put in a 96-well spectrophotometer, and the ODs at 490 nm were measured.
(§2) All concentrations of compounds were tested in triplicate and controls were averaged over 4 wells. IC50 was calculated by plotting the concentration of compound vs the percentage of inhibition in treated wells using GraphPad Prism 5. […] The scale utilized in Tables […] is as follows: +++ less than 1000 nM; ++ between 1000 nM and 5000 nM; and + greater than 5000 nM. The scale utilized in Table 8 is as follows: +++ less than 2000 nM; ++ between 2000 nM and 5000 nM; and + greater than 5000 nM.

[4] = tested on: A549 cells; experiment: Inhibition of cancer cell growth, MTT or MTS assay, A549; type: cell-based; details: Homo sapiens, 72 h incubation
Procedure: as §1, §2

Sequence of BRAF V600E (P15056 whole entry V600E): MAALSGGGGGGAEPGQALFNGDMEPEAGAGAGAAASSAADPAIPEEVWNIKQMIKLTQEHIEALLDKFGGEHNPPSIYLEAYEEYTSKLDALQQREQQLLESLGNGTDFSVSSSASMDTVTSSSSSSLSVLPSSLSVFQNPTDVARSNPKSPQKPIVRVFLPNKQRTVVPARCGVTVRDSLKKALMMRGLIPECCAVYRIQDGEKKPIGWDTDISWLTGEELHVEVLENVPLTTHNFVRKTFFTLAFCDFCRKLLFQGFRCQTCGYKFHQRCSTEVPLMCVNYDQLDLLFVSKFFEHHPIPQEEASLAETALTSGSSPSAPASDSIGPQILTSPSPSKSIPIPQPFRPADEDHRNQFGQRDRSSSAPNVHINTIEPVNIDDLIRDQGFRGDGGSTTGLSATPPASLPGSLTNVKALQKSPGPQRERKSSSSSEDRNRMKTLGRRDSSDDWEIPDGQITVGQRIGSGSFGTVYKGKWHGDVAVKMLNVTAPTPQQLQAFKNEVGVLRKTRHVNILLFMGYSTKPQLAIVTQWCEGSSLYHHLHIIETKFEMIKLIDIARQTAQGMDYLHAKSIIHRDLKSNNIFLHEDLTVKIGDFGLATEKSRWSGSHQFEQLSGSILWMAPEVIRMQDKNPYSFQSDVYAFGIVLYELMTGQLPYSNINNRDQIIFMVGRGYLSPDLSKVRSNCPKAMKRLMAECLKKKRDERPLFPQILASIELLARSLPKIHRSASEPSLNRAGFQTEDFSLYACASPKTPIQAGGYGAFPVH

Row | SMILES | IC50 [1] [µM] | inhibition at 1 µM [1] [%] | IC50 [2] [µM] | inhibition at 1 µM [2] [%] | IC50 [3] [µM] | IC50 [4] [µM]
1 | O=C(Nc1ccc(F)c(Oc2ccc3ncc(N4CCOCC4)nc3c2)c1)Nc1ccc(Cl)c(C(F)(F)F)c1 [Compound C009, 1-(4-chloro-3-(trifluoromethyl)phenyl)-3-(4-fluoro-3-((3-morpholinoquinoxalin-6-yl)oxy)phenyl)urea] | > 0.1 | < 70 | > 0.1 | > 89 | < 1 | < 2
2 | O=C(Nc1ccc(F)c(Oc2ccc3nccnc3c2)c1)c1ccc(Cl)c(C(F)(F)F)c1 [Compound C010, 4-chloro-N-(4-fluoro-3-(quinoxalin-6-yloxy)phenyl)-3-(trifluoromethyl)benzamide] |  | 70 to 89 |  | 70 to 89 | > 5 | 2 to 5
3 | O=C(Nc1ccc(F)c(Oc2ccc3nccnc3c2)c1)Nc1ccc(Cl)c(C(F)(F)F)c1 [Compound C011, 1-(4-chloro-3-(trifluoromethyl)phenyl)-3-(4-fluoro-3-(quinoxalin-6-yloxy)phenyl)urea] |  | < 70 |  | 70 to 89 | < 1 | < 2
4 | CCCS(=O)(=O)Nc1ccc(F)c(Oc2ccc3nccnc3c2)c1 [Compound C013, N-(4-fluoro-3-(quinoxalin-6-yloxy)phenyl)propane-1-sulfonamide] |  |  |  |  | > 5 | > 5
5 | O=C(Nc1cc(F)cc(Oc2ccc3nccnc3c2)c1)c1cccc(F)c1 [Compound C014, 3-fluoro-N-(3-fluoro-5-(quinoxalin-6-yloxy)phenyl)benzamide] |  | 70 to 89 |  |  | > 5 | > 5
6 | O=C(Nc1cc(F)cc(Oc2ccc3nccnc3c2)c1)c1cccc(C(F)(F)F)c1 [Compound C015, N-(3-fluoro-5-(quinoxalin-6-yloxy)phenyl)-3-(trifluoromethyl)benzamide] |  | > 89 |  | < 70 | > 5 | > 5
7 | O=C(Nc1cc(F)cc(Oc2ccc3nccnc3c2)c1)c1ccc(Cl)c(C(F)(F)F)c1 [Compound C016, 4-chloro-N-(3-fluoro-5-(quinoxalin-6-yloxy)phenyl)-3-(trifluoromethyl)benzamide] |  | > 89 |  |  | > 5 | > 5
8 | O=C(Nc1ccc(F)c(Oc2ccc3nccnc3c2)c1)c1cccc(C(F)(F)F)c1 [Compound C018, N-(4-fluoro-3-(quinoxalin-6-yloxy)phenyl)-3-(trifluoromethyl)benzamide] |  | > 89 |  | 70 to 89 | 1 to 5 | > 5
9 | O=C(Nc1cccc(F)c1)Nc1cc(F)cc(Oc2ccc3nccnc3c2)c1 [Compound C020, 1-(3-fluoro-5-(quinoxalin-6-yloxy)phenyl)-3-(3-fluorophenyl)urea] |  | 70 to 89 |  |  | > 5 | 2 to 5
10 | O=C(Nc1cc(F)cc(Oc2ccc3nccnc3c2)c1)Nc1ccc(Cl)c(C(F)(F)F)c1 [Compound C022, 1-(4-chloro-3-(trifluoromethyl)phenyl)-3-(3-fluoro-5-(quinoxalin-6-yloxy)phenyl)urea] |  | 70 to 89 |  | 70 to 89 | < 1 | < 2
11 | O=C(Nc1cccc(F)c1)Nc1ccc(F)c(Oc2ccc3nccnc3c2)c1 [Compound C023, 1-(4-fluoro-3-(quinoxalin-6-yloxy)phenyl)-3-(3-fluorophenyl)urea] |  | > 89 |  | < 70 | 1 to 5 | 2 to 5
12 | O=C(Nc1cccc(C(F)(F)F)c1)Nc1ccc(F)c(Oc2ccc3nccnc3c2)c1 [Compound C024, 1-(4-fluoro-3-(quinoxalin-6-yloxy)phenyl)-3-(3-(trifluoromethyl)phenyl)urea] |  | > 89 |  | 70 to 89 | 1 to 5 | < 2
13 | O=C(Nc1ccc(F)c(Oc2ccc3ncc(N4CCOCC4)nc3c2)c1)c1cccc(F)c1 [Compound C025, 3-fluoro-N-(4-fluoro-3-((3-morpholinoquinoxalin-6-yl)oxy)phenyl)benzamide] |  | 70 to 89 |  | 70 to 89 | > 5 | > 5
14 | O=C(Nc1ccc(F)c(Oc2ccc3ncc(N4CCOCC4)nc3c2)c1)c1cccc(C(F)(F)F)c1 [Compound C026, N-(4-fluoro-3-((3-morpholinoquinoxalin-6-yl)oxy)phenyl)-3-(trifluoromethyl)benzamide] |  | 70 to 89 |  | > 89 | 1 to 5 | 2 to 5
15 | O=C(Nc1cc(F)cc(Oc2ccc3ncc(N4CCOCC4)nc3c2)c1)c1cccc(F)c1 [Compound C027, 3-fluoro-N-(3-fluoro-5-((3-morpholinoquinoxalin-6-yl)oxy)phenyl)benzamide] |  | 70 to 89 |  | 70 to 89 | 1 to 5 | > 5
16 | O=C(Nc1cc(F)cc(Oc2ccc3ncc(N4CCOCC4)nc3c2)c1)c1ccc(Cl)c(C(F)(F)F)c1 [Compound C029, 4-chloro-N-(3-fluoro-5-((3-morpholinoquinoxalin-6-yl)oxy)phenyl)-3-(trifluoromethyl)benzamide] |  | 70 to 89 |  | 70 to 89 | 1 to 5 | 2 to 5
17 | O=C(Nc1cccc(F)c1)Nc1cc(F)cc(Oc2ccc3ncc(N4CCOCC4)nc3c2)c1 [Compound C031, 1-(3-fluoro-5-((3-morpholinoquinoxalin-6-yl)oxy)phenyl)-3-(3-fluorophenyl)urea] |  | > 89 |  | < 70 | > 5 | > 5
18 | O=C(Nc1cc(F)cc(Oc2ccc3ncc(N4CCOCC4)nc3c2)c1)Nc1cccc(C(F)(F)F)c1 [Compound C032, 1-(3-fluoro-5-((3-morpholinoquinoxalin-6-yl)oxy)phenyl)-3-(3-(trifluoromethyl)phenyl)urea] |  | 70 to 89 |  | 70 to 89 | 1 to 5 | 2 to 5
19 | O=C(Nc1ccc(Oc2ccc3nccnc3c2)cc1)c1cccc(F)c1 [Compound C077, 3-fluoro-N-(4-(quinoxalin-6-yloxy)phenyl)benzamide] |  | < 70 |  |  | 1 to 5 | > 5
20 | O=C(Nc1ccc(Oc2ccc3nccnc3c2)cc1)c1ccc(Cl)c(C(F)(F)F)c1 [Compound C079, 4-chloro-N-(4-(quinoxalin-6-yloxy)phenyl)-3-(trifluoromethyl)benzamide] |  | < 70 |  |  | > 5 | > 5
21 | CCCS(=O)(=O)Nc1ccc(Oc2ccc3nccnc3c2)cc1 [Compound C080, N-(4-(quinoxalin-6-yloxy)phenyl)propane-1-sulfonamide] |  |  |  |  | > 5 | > 5
22 | O=C(Nc1ccc(C(F)(F)F)cc1)Nc1ccc(Oc2ccc3nccnc3c2)cc1F [Compound C097, 1-(2-fluoro-4-(quinoxalin-6-yloxy)phenyl)-3-(4-(trifluoromethyl)phenyl)urea] |  | 70 to 89 |  |  | > 5 | > 5
